Laboratory results taken from patent US20250312258A1, “2,3-PYRROLIDINEDIONE CONJUGATES AND METHODS OF USING THEREOF” (North Carolina State University, priority 2022, published 2025).
Like-named read-outs stand apart in the source and are kept apart here.

Columns and labels:
[1] = tested on: Group B Strep; assay: MIC against Group B Strep strain panel; type: cell-based
[2] = tested on: S. aureus 25923; assay: Broth microdilution MIC, S. aureus 25923; type: cell-based, Staphylococcus aureus; settings: Staphylococcus aureus, 25923, read-out: MIC (S. aureus 25923)
[3] = tested on: E. coli; assay: MIC against E. coli strains; type: cell-based
[4] = tested on: VRE; assay: MIC / in vitro activity against VRE strain panel; type: cell-based, Enterococcus spp.
[5] = tested on: MRSA; assay: MIC against MRSA strain panel; type: cell-based; settings: Staphylococcus aureus, the 4th table
[6] = tested on: Group A Strep; assay: MIC against Group A Strep strain panel; type: cell-based
[7] = tested on: vanA VRE 700221; assay: MIC against vanA VRE 700221; type: cell-based, Enterococcus spp.; settings: Enterococcus, VRE
[8] = tested on: S. aureus 29213; assay: Broth microdilution MIC, S. aureus 29213; type: cell-based, Staphylococcus aureus
[9] = tested on: VRSA; assay: MIC against VRSA (Table 2); type: cell-based; settings: Staphylococcus aureus, read-out: MIC (VRSA)

Measured: MIC

CN[C@H](CC(C)C)C(=O)N[C@H]1C(=O)N[C@@H](CC(N)=O)C(=O)N[C@H]2C(=O)N[C@H]3C(=O)N[C@H](C(=O)N[C@H](C(=O)O)c4cc(O)cc(O)c4-c4cc3ccc4O)[C@H](O)c3ccc(c(Cl)c3)Oc3cc2cc(c3O[C@@H]2O[C@H](CO)[C@@H](O)[C@H](O)[C@H]2O[C@H]2C[C@](C)(N)[C@H](O)[C@H](C)O2)Oc2ccc(cc2Cl)[C@H]1O [Vancomycin, vancomycin, reference compound]
>64 µg/mL: [3]; AR-137 E. coli, the 4th table | [4]; 1593 (VRE), the 3rd table | [4]; 1593 VRE, the 4th table | [4]; 1751 (VRE), the 3rd table | [4]; 1751 VRE, the 6th table | [4]; 1772 VRE, the 6th table | [4]; 1946 VRE, the 6th table | [4]; 2059 VRE, the 6th table | [4]; 2431 VRE, the 6th table | [4]; 2574 VRE, the 6th table | [4]; 3053 VRE, the 6th table | [4]; 3183 (VRE), the 3rd table | [4]; 3183 VRE, the 6th table | [4]; 3190 VRE, the 6th table | [4]; 3191 VRE, the 6th table | [4]; 3222 (VRE, the 3rd table) | [4]; 3222 VRE, the 6th table | [4]; 3235 VRE, the 6th table | [4]; 3239 VRE, the 6th table | [4]; 3241 VRE, the 6th table | [4]; 3623 VRE, the 6th table
0.5 µg/mL: [1]; 2009-62 Group B Strep, CA-MHB w/5% LHB, the 4th table | [1]; J4183 Group B Strep, the 9th table | [1]; J4185 Group B Strep, the 9th table | [1]; J4186 Group B Strep, the 9th table | [1]; J4222 Group B Strep, the 9th table | [5]; 6220 MRSA | [5]; 6231 MRSA | [8]; Staphylococcus aureus, ATCC 29213 / MRSA
1 µg/mL: [5]; 6215 MRSA | [5]; 6217 MRSA | [5]; 6218 MRSA | [5]; AR-978 MRSA | [5]; AR-979 MRSA | [5]; AR-993 MRSA | [5]; AR-997 MRSA | [8]; Staphylococcus aureus, 29213, read-out: MIC (S. aureus 29213)
512 µg/mL: [7] | [7]; read-out: MIC (vanA VRE 700221)
0.25 µg/mL: [1]; J4182 Group B Strep, the 9th table | [6] | [6]; 2007-11 Group A Strep, the 8th table | [6]; 2007-28 Group A Strep, the 8th table | [6]; 2007-49 Group A Strep, the 8th table | [6]; 2007-73 Group A Strep, the 8th table | [6]; 2007-107 Group A Strep, the 8th table | [6]; 2007-1101 Group A Strep, the 8th table | [6]; 2008-06 Group A Strep, the 8th table | [6]; 2008-45 Group A Strep, the 8th table | [6]; 2008-818 Group A Strep, CA-MHB w/5% LHB, the 4th table | [6]; 2008-1565 Group A Strep, the 8th table | [6]; 2008-1692 Group A Strep, the 8th table | [6]; 2009-8 Group A Strep, the 8th table | [6]; 2009-37 Group A Strep, CA-MHB w/5% LHB, the 4th table | [6]; 2009-106 Group A Strep, the 8th table | [6]; 2009-109 Group A Strep, the 8th table | [6]; 2009-114 Group A Strep, the 8th table | [6]; 2009-136 Group A Strep, the 8th table
2 µg/mL: [2]
64 µg/mL: [9]
> 64 µg/mL: [3]; Escherichia coli | [3]; Escherichia coli, ATCC25922 | [4]; Enterococcus, VRE
